Measured values published in US9656963B2 (BRISTOL-MYERS SQUIBB COMPANY, priority 2012, dated 2017).

These compounds were tested against T1, hGPR40 (Homo sapiens, UniProt O14842) (assay: FDSS-Based Intracellular Calcium Assay). Details: cells expressing GPR40, intracellular Ca2+ response.
T1 construct: 3x FLAG; expressed in transfected cells
Type: cell-based
Procedure, shortened: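 Flag-tagged GPR40-expressing cells plated overnight in serum-free, phenol red-free DMEM. Compounds added from DMSO stocks, diluted in assay buffer and added as 3x solution. Intracellular Ca^2+ flux read by fluorescence on an FDSS reader.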

T1 sequence (O14842 whole entry): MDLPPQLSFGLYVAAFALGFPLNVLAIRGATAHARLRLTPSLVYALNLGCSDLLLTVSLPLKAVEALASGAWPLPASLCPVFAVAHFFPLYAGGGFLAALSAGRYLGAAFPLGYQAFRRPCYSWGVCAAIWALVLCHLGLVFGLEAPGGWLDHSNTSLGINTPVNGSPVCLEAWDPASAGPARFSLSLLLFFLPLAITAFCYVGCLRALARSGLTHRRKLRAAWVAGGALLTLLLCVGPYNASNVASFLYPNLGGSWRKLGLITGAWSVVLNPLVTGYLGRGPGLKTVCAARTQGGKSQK

SMILES	EC50
COc1ccc(F)c(-c2ccc(Cc3ccc(N4N=C(C(F)(F)F)C(C)C4CC(=O)O)cc3)c(Cl)c2)c1 (single isomer, unassigned) [Example 60, Isomer 1, 22-(1-(4-((3-chloro-2′-fluoro-5′-methoxy-[1,1′-biphenyl]-4-yl)methyl)phenyl)-4-methyl-3-(trifluoromethyl)-4,5-dihydro-1H-pyrazol-5-yl)acetic acid]	970 nM
CCC1C(C(F)(F)F)=NN(c2ccc(Cc3ccc(-c4cc(OC)ccc4F)cc3C)cc2)C1CC(=O)O (single isomer, unassigned) [Example 44, Isomer 2, 2-(4-ethyl-1-(4-((2′-fluoro-5′-methoxy-3-methylbiphenyl-4-yl)methyl)phenyl)-3-(trifluoromethyl)-4,5-dihydro-1H-pyrazol-5-yl)acetic acid]	20 nM
Cc1ccccc1Oc1ccc(N2N=C(C#N)CC2CC(=O)O)cc1 (single isomer, unassigned) [Example 3, Isomer 1, 2-(3-cyano-1-(4-(o-tolyloxy)phenyl)-4,5-dihydro-1H-pyrazol-5-yl)acetic acid]	37 nM
COc1ccc(F)c(-c2cnc(Oc3ccc(N4N=C(C(F)(F)F)[C@@H](C)[C@@H]4CC(=O)O)cc3)nc2)c1 [Example 65, 2-((4S,5S)-1-(4-(5-(2-fluoro-5-methoxyphenyl)pyrimidin-2-yloxy)phenyl)-4-methyl-3-(trifluoromethyl)-4,5-dihydro-1H-pyrazol-5-yl)acetic acid]	1490 nM
COc1cccc(-c2ccc(Cc3ccc(N4N=C(C#N)CC4CC(=O)O)cc3)c(C)c2)c1 (racemic) [Example 38, 2-(3-cyano-1-(4-((3′-methoxy-3-methylbiphenyl-4-yl)methyl)phenyl)-4,5-dihydro-1H-pyrazol-5-yl)acetic acid]	190 nM
COc1ccc(F)c(-c2ccc(Cc3ccc(N4N=C(C(F)(F)F)CC4(C)CC(=O)O)cc3)c(C)c2)c1 (single isomer, unassigned) [Example 51, Isomer 1, 2-(1-(4-((2′-fluoro-5′-methoxy-3-methylbiphenyl-4-yl)methyl)phenyl)-5-methyl-3-(trifluoromethyl)-4,5-dihydro-1H-pyrazol-5-yl)acetic acid]	1550 nM
COc1ccc(F)c(-c2cc(C)c(Oc3ccc(N4N=C(C#N)CC4CC(=O)O)cc3)cc2C)c1 (racemic) [Example 35, 2-(3-cyano-1-(4-(2′-fluoro-5′-methoxy-2,5-dimethylbiphenyl-4-yloxy)phenyl)-4,5-dihydro-1H-pyrazol-5-yl)acetic acid]	180 nM
COc1ccc(F)c(-c2ccc(Cc3ccc(N4N=C(C(F)(F)F)CC4CC(=O)O)cc3)c(Cl)c2)c1 (single isomer, unassigned) [Example 20, Isomer 1, 2-(1-(4-((3-chloro-2′-fluoro-5′-methoxybiphenyl-4-yl)methyl)phenyl)-3-(trifluoromethyl)-4,5-dihydro-1H-pyrazol-5-yl)acetic acid]	470 nM
Cc1cc(Cc2ccc(N3N=C(C(F)(F)F)CC3CC(=O)O)cc2)ccc1Br (racemic) [Example 18, 2-(1-(4-(4-bromo-3-methylbenzyl)phenyl)-3-(trifluoromethyl)-4,5-dihydro-1H-pyrazol-5-yl)acetic acid]	455 nM
COc1ccc(Cl)c(-c2ccc(Cc3ccc(N4N=C(C#N)CC4CC(=O)O)cc3)c(C)c2)c1 (racemic) [Example 40, 2-(1-(4-((2′-chloro-5′-methoxy-3-methylbiphenyl-4-yl)methyl)phenyl)-3-cyano-4,5-dihydro-1H-pyrazol-5-yl)acetic acid]	120 nM
COCC1C(C(F)(F)F)=NN(c2ccc(Cc3ccc(-c4cc(OC)ccc4F)cc3C)cc2)C1CC(=O)O (single isomer, unassigned) [Example 48, Isomer 2, 2-(1-(4-((2′-fluoro-5′-methoxy-3-methylbiphenyl-4-yl)methyl)phenyl)-4-(methoxymethyl)-3-(trifluoromethyl)-4,5-dihydro-1H-pyrazol-5-yl)acetic acid]	920 nM
COc1ccc(F)c(-c2ncc(Cc3ccc(N4N=C(c5ccccc5)[C@@H](C)[C@@H]4CC(=O)O)cc3)c(C)n2)c1 [Example 64, 2-((4S,5S)-1-(4-((2-(2-fluoro-5-methoxyphenyl)-4-methylpyrimidin-5-yl)methyl)phenyl)-4-methyl-3-phenyl-4,5-dihydro-1H-pyrazol-5-yl)acetic acid]	270 nM
COc1ccc(F)c(-c2ccc(Cc3ccc(N4N=C(c5ccc(F)cc5)[C@@H](C)[C@@H]4CC(=O)O)cc3)c(C)c2)c1 (single isomer, unassigned) [Example 67, isomer 2]	800 nM
Cc1cc(-c2ccncc2)ccc1Cc1ccc(N2N=C(C(F)(F)F)[C@@H](C)[C@@H]2CC(=O)O)cc1 [Example 78, 2-((4S,5S)-4-methyl-1-(4-(2-methyl-4-(pyridin-4-yl)benzyl)phenyl)-3-(trifluoromethyl)-4,5-dihydro-1H-pyrazol-5-yl)acetic acid]	8330 nM
Cc1cc(Br)c(F)cc1Oc1ccc(N2N=C(C(F)(F)F)CC2CC(=O)O)cc1 (racemic) [Example 10, 2-(1-(4-(4-bromo-5-fluoro-2-methylphenoxy)phenyl)-3-(trifluoromethyl)-4,5-dihydro-1H-pyrazol-5-yl)acetic acid]	230 nM
COc1ccc(Cc2ccc(N3N=C(C#N)CC3CC(=O)O)cc2)c(C)c1 (racemic) [Example 37, 2-(3-cyano-1-(4-(4-methoxy-2-methylbenzyl)phenyl)-4,5-dihydro-1H-pyrazol-5-yl)acetic acid]	150 nM
COc1ccc(OC)c(-c2ccc(Cc3ccc(N4N=C(C#N)CC4CC(=O)O)cc3)c(C)c2)c1 (single isomer, unassigned) [Example 49, Isomer 2, 2-(3-cyano-1-(4-((2′,5′-dimethoxy-3-methylbiphenyl-4-yl)methyl)phenyl)-4,5-dihydro-1H-pyrazol-5-yl)acetic acid]	3110 nM
COc1ccc(F)c(-c2ccc(Cc3ccc(N4N=C(C(=O)O)[C@@H](C)[C@@H]4CC(=O)O)cc3)c(C)c2)c1 [Example 57, (4S,5S)-5-(carboxymethyl)-1-(4-((2′-fluoro-5′-methoxy-3-methyl-[1,1′-biphenyl]-4-yl)methyl)phenyl)-4-methyl-4,5-dihydro-1H-pyrazole-3-carboxylic acid]	6620 nM
Cc1ccccc1Oc1ccc(N2N=C(C#N)CC2CC(=O)O)cc1 (single isomer, unassigned) [Example 3, Isomer 2, 2-(3-cyano-1-(4-(o-tolyloxy)phenyl)-4,5-dihydro-1H-pyrazol-5-yl)acetic acid]	560 nM
COc1ccc(F)c(-c2ccc(Cc3ccc(N4N=C(C#N)C(C)C4CC(=O)O)cc3)c(C)c2)c1 (single isomer, unassigned) [Example 52, Isomer 1, 2-(3-cyano-1-(4-((2′-fluoro-5′-methoxy-3-methylbiphenyl-4-yl)methyl)phenyl)-4-methyl-4,5-dihydro-1H-pyrazol-5-yl)acetic acid]	1050 nM
COc1ccc(F)c(-c2ccc(Cc3ccc(N4N=C(C(F)(F)F)C(C(C)C)C4CC(=O)O)cc3)c(C)c2)c1 (single isomer, unassigned) [Example 45, Isomer 1, 2-(1-(4-((2′-fluoro-5′-methoxy-3-methylbiphenyl-4-yl)methyl)phenyl)-4-isopropyl-3-(trifluoromethyl)-4,5-dihydro-1H-pyrazol-5-yl)acetic acid]	3820 nM
COc1ccc(F)c(-c2ccc(Cc3ccc(N4N=C(c5ncccn5)C(C)C4CC(=O)O)cc3)c(C)c2)c1 (single isomer, unassigned) [Example 61 isomer 1]	> 16600 nM
Cc1cc(-c2cc(C#N)ccc2F)ccc1Cc1ccc(N2N=C(C#N)CC2CC(=O)O)cc1 (racemic) [Example 39, 2-(3-cyano-1-(4-((5′-cyano-2′-fluoro-3-methylbiphenyl-4-yl)methyl)phenyl)-4,5-dihydro-1H-pyrazol-5-yl)acetic acid]	200 nM
Cc1nc(-c2ccccc2)ncc1Cc1ccc(N2N=C(C(F)(F)F)[C@@H](C)[C@@H]2CC(=O)O)cc1 [Example 58, 2-((4S,5S)-4-methyl-1-(4-((4-methyl-2-phenylpyrimidin-5-yl)methyl)phenyl)-3-(trifluoromethyl)-4,5-dihydro-1H-pyrazol-5-yl)acetic acid]	4290 nM
COc1ccc(F)c(-c2ccc(Oc3ccc(N4N=C(c5ncco5)CC4CC(=O)O)cc3)c(C)c2)c1 (single isomer, unassigned) [Example 8, Isomer 1, 2-(1-(4-(2′-fluoro-5′-methoxy-3-methylbiphenyl-4-yloxy)phenyl)-3-(oxazol-2-yl)-4,5-dihydro-1H-pyrazol-5-yl)acetic acid]	910 nM
COc1ccc(F)c(-c2ccc(Cc3ccc(N4N=C(c5ccc(Cl)cc5)[C@@H](C)[C@@H]4CC(=O)O)cc3)c(C)c2)c1 (single isomer, unassigned) [Example 66, isomer 2]	510 nM
COc1ccc(F)c(-c2ccc(Cc3ccc(N4N=C(C(F)(F)F)C(CO)C4CC(=O)O)cc3)c(C)c2)c1 (single isomer, unassigned) [Example 53, Isomer 1, 2-(1-(4-((2′-fluoro-5′-methoxy-3-methyl-[1,1′-biphenyl]-4-yl)methyl)phenyl)-4-(hydroxymethyl)-3-(trifluoromethyl)-4,5-dihydro-1H-pyrazol-5-yl)acetic acid, trans-diastereomer]	170 nM
COc1ccc(F)c(-c2ccc(Cc3ccc(N4N=C(C(F)(F)F)C(C5CC5)C4CC(=O)O)cc3)c(C)c2)c1 (single isomer, unassigned) [Example 43, Isomer 2, 2-(4-cyclopropyl-1-(4-((2′-fluoro-5′-methoxy-3-methylbiphenyl-4-yl)methyl)phenyl)-3-(trifluoromethyl)-4,5-dihydro-1H-pyrazol-5-yl)acetic acid]	90 nM
COc1ccc(F)c(-c2ccc(Cc3ccc(N4N=C(C(F)(F)F)C(C(C)C)C4CC(=O)O)cc3)c(C)c2)c1 (single isomer, unassigned) [Example 45, Isomer 2, 2-(1-(4-((2′-fluoro-5′-methoxy-3-methylbiphenyl-4-yl)methyl)phenyl)-4-isopropyl-3-(trifluoromethyl)-4,5-dihydro-1H-pyrazol-5-yl)acetic acid]	70 nM
